Experimental data reported in patent US9593108B2, “Compounds and methods for antiviral treatment” (PTC Therapeutics, Inc., priority 2009, dated 2017).

Tested on: HCV replicon RNA (GenBank Accession No. AJ242654)
Experiment: HCV Replicon Assay (replicon RNA reduction and/or Fluc reporter signal)
Assay type: cell-based, Hepatitis C virus
Conditions: Hepatitis C virus, 72 h, replicon-containing cells cultured with test compound for up to 3 days
Text: The lack of reliable and readily accessible cell-culture and small animal models permissive for HCV replication has limited the development of new anti-HCV agents. Self-replicating subgenomic HCV systems, termed HCV replicons, have been described and have been widely used to assess the efficacy of anti-HCV inhibitors (see Blight K J, et al., 2000, Efficient initiation of HCV RNA replication in cell culture. Science 290:1972-1974; Blight K J, et al., 2002, Highly permissive cell lines for subgenomic and genomic hepatitis C virus RNA replication. J Virol 76:13001-13014; Ikeda M, et al., 2002. Selectable subgenomic and genome-length dicistronic RNAs derived from an infectious molecular clone of the HCV-N strain of hepatitis C virus replicate efficiently in cultured Huh7 cells. J Virol 76:2997-3006; Lohmann V, et al., 1999, Replication of subgenomic hepatitis C virus RNAs in a hepatoma cell line. Science 285:110-113; Pietschmann T, et al., 2002, Persistent and transient replication of full-length hepatitis C virus genomes in cell culture. J Virol 76:4008-4021; and, Pietschmann T, et al., 2001, Characterization of cell lines carrying self-replicating hepatitis C virus RNAs. J Virol 75:1252-1264).
As described in U.S. Pat. No. 6,630,343, HCV inhibitors are analyzed in the bicistronic replicon by quantitating replicon RNA (GenBank Accession No. AJ242654) reduction and/or the Fluc reporter signal. Replicon-containing cells may be cultured with a test compound of the present invention for up to 3 days. Interferon (IFN) is used as a positive control. In general, the replicon IC50 values shown in Table 1 represent IC50 values determined by replicon RNA reduction.

CCc1cnc2c(c1)c(C#N)c(-c1ccc(S(=O)(=O)N[C@H](C)C(F)(F)F)cn1)n2C1CCC1 [Cpd 158, 6-(3-cyano-1-cyclobutyl-5-ethyl-1H-pyrrolo[2,3-b]pyridin-2-yl)-N-[(2R)-1,1,1-trifluoropropan-2-yl]pyridine-3-sulfonamide] and CNc1cnc2c(c1)c(C#N)c(-c1ccc(S(=O)(=O)N[C@@H](C)C(F)(F)F)cn1)n2C1CCC1 [Cpd 394, 6-[3-cyano-1-cyclobutyl-5-(methylamino)-1H-pyrrolo[2,3-b]pyridin-2-yl]-N-[(2S)-1,1,1-trifluoropropan-2-yl]pyridine-3-sulfonamide] cannot be ordered by IC50: < 500 nM for the first, < 500 nM for the second.

First: N#Cc1c(-c2ccc(NS(=O)(=O)C3CC3)cc2)n(C2CCC2)c2ncc(C(F)(F)F)cc12 [Cpd 246, N-{4-[3-cyano-1-cyclobutyl-5-(trifluoromethyl)-1H-pyrrolo[2,3-b]pyridin-2-yl]phenyl}cyclopropanesulfonamide]
Second: N#Cc1c(-c2ccc(S(=O)(=O)NC3(C(F)(F)F)CC3)cc2)n(C2CCC2)c2ncc(Cl)cc12 [Cpd 281, 4-(5-chloro-3-cyano-1-cyclobutyl-1H-pyrrolo[2,3-b]pyridin-2-yl)-N-[1-(trifluoromethyl)cyclopropyl]benzenesulfonamide]
The IC50 of the first is higher: 500 to 2000 nM for the first, < 500 nM for the second. The second is the more potent here.

First: COc1cnc2c(c1)c(C(N)=O)c(-c1ccc(S(=O)(=O)NC3(C)CC3)cn1)n2C1CCCC1 [Cpd 410, 1-cyclopentyl-5-methoxy-2-{5-[(1-methylcyclopropyl)sulfamoyl]pyridin-2-yl}-1H-pyrrolo[2,3-b]pyridine-3-carboxamide]
Second: COc1cnc2c(c1)c(C#N)c(-c1ccc(S(=O)(=O)NC3(C)CC3)cn1)n2C1CCCC1 [Cpd 269, 6-(3-cyano-1-cyclopentyl-5-methoxy-1H-pyrrolo[2,3-b]pyridin-2-yl)-N-(1-methylcyclopropyl)pyridine-3-sulfonamide]
The IC50 of the first is higher: 500 to 2000 nM for the first, < 500 nM for the second. The second is the more potent here.

CCc1cnc2c(c1)c(C#N)c(-c1ncc(S(=O)(=O)N[C@@H](C)C(F)(F)F)cn1)n2C1CCC1 [Cpd 159, 2-(3-cyano-1-cyclobutyl-5-ethyl-1H-pyrrolo[2,3-b]pyridin-2-yl)-N-[(2S)-1,1,1-trifluoropropan-2-yl]pyrimidine-5-sulfonamide] and CCc1cnc2c(c1)c(C#N)c(-c1ncc(S(=O)(=O)N[C@H](C)C(F)(F)F)cn1)n2C1CCC1 [Cpd 160, 2-(3-cyano-1-cyclobutyl-5-ethyl-1H-pyrrolo[2,3-b]pyridin-2-yl)-N-[(2R)-1,1,1-trifluoropropan-2-yl]pyrimidine-5-sulfonamide] cannot be ordered by IC50: < 500 nM for the first, < 500 nM for the second.

CC(C)(NS(=O)(=O)c1ccc(-c2c(C#N)c3cc(Cl)cnc3n2C2CCC2)cc1)C(F)(F)F [Cpd 282, 4-(5-chloro-3-cyano-1-cyclobutyl-1H-pyrrolo[2,3-b]pyridin-2-yl)-N-(1,1,1-trifluoro-2-methylpropan-2-yl)benzenesulfonamide] and Cc1ccc2c(C#N)c(-c3ccc(S(=O)(=O)N[C@H](C)C(F)(F)F)cc3)n(C3CCC3)c2n1 [Cpd 91, 4-(3-cyano-1-cyclobutyl-6-methyl-1H-pyrrolo[2,3-b]pyridin-2-yl)-N-[(2R)-1,1,1-trifluoropropan-2-yl]benzenesulfonamide] cannot be ordered by IC50: < 500 nM for the first, < 500 nM for the second.

C[C@@H](NS(=O)(=O)c1ccc(-c2c(C#N)c3ccc(C4CC4)nc3n2C2CCC2)cc1)C(F)(F)F [Cpd 150, 4-(3-cyano-1-cyclobutyl-6-cyclopropyl-1H-pyrrolo[2,3-b]pyridin-2-yl)-N-[(2R)-1,1,1-trifluoropropan-2-yl]benzenesulfonamide] and Cc1ccc2c(C#N)c(-c3ccc(S(=O)(=O)N[C@H](C)C(F)(F)F)cn3)n(C3CCC3)c2n1 [Cpd 93, 6-(3-cyano-1-cyclobutyl-6-methyl-1H-pyrrolo[2,3-b]pyridin-2-yl)-N-[(2R)-1,1,1-trifluoropropan-2-yl]pyridine-3-sulfonamide] cannot be ordered by IC50: < 500 nM for the first, < 500 nM for the second.

CC(C)NS(=O)(=O)c1ccc(-c2c(C#N)c3cc(C4CC4)cnc3n2C2CCC2)cn1 [Cpd 135, 5-(3-cyano-1-cyclobutyl-5-cyclopropyl-1H-pyrrolo[2,3-b]pyridin-2-yl)-N-(propan-2-yl)pyridine-2-sulfonamide] and CC(C)(C)NS(=O)(=O)c1ccc(-c2c(C#N)c3cc(C4CC4)cnc3n2C2CCC2)nc1 [Cpd 126, N-tert-butyl-6-(3-cyano-1-cyclobutyl-5-cyclopropyl-1H-pyrrolo[2,3-b]pyridin-2-yl)pyridine-3-sulfonamide] cannot be ordered by IC50: < 500 nM for the first, < 500 nM for the second.

First: Cc1ccc2c(C#N)c(-c3ncc(S(=O)(=O)NC(C)C)cn3)n(C3CCC3)c2n1 [Cpd 95, 2-(3-cyano-1-cyclobutyl-6-methyl-1H-pyrrolo[2,3-b]pyridin-2-yl)-N-(propan-2-yl)pyrimidine-5-sulfonamide]
Second: COc1ncc2c(C#N)c(-c3ccc(S(=O)(=O)N[C@@H](C)C(F)(F)F)cn3)n(C3CCC3)c2n1 [Cpd 38, 6-(5-cyano-7-cyclobutyl-2-methoxy-7H-pyrrolo[2,3-d]pyrimidin-6-yl)-N-[(2S)-1,1,1-trifluoropropan-2-yl]pyridine-3-sulfonamide]
The IC50 of the first is higher: 500 to 2000 nM for the first, < 500 nM for the second. The second is the more potent here.

Compared with C[C@H](NS(=O)(=O)c1ccc(-c2cc3cc(C(F)(F)F)cnc3n2-c2ccccc2)nc1)C(F)(F)F [Cpd 314, 6-[1-phenyl-5-(trifluoromethyl)-1H-pyrrolo[2,3-b]pyridin-2-yl]-N-[(2S)-1,1,1-trifluoropropan-2-yl]pyridine-3-sulfonamide], C[C@H](NS(=O)(=O)c1ccc(-c2cc3cc(C(F)(F)F)cnc3n2-c2cnccn2)nc1)C(F)(F)F [Cpd 315, 6-[1-(pyrazin-2-yl)-5-(trifluoromethyl)-1H-pyrrolo[2,3-b]pyridin-2-yl]-N-[(2S)-1,1,1-trifluoropropan-2-yl]pyridine-3-sulfonamide] is lower in IC50: 500 to 2000 nM for the first, < 500 nM for the second. The second is the more potent here.

Cc1cnc2c(c1)c(C#N)c(-c1ccc(S(=O)(=O)N[C@@H](C)C(F)(F)F)cn1)n2C1CCCC1 [Cpd 255, 6-(3-cyano-1-cyclopentyl-5-methyl-1H-pyrrolo[2,3-b]pyridin-2-yl)-N-[(2S)-1,1,1-trifluoropropan-2-yl]pyridine-3-sulfonamide] and C[C@H](NS(=O)(=O)c1ccc(-c2c(C#N)c3cc(F)cnc3n2-c2ccccc2)nc1)C(F)(F)F [Cpd 319, 6-(3-cyano-5-fluoro-1-phenyl-1H-pyrrolo[2,3-b]pyridin-2-yl)-N-[(2S)-1,1,1-trifluoropropan-2-yl]pyridine-3-sulfonamide] cannot be ordered by IC50: < 500 nM for the first, < 500 nM for the second.

First: CCc1cnc2c(c1)c(C(N)=O)c(-c1ccc(S(=O)(=O)NC(C)(C)C)cn1)n2C1CCC1 [Cpd 382, 2-[5-(tert-butylsulfamoyl)pyridin-2-yl]-1-cyclobutyl-5-ethyl-1H-pyrrolo[2,3-b]pyridine-3-carboxamide]
Second: CSc1cnc2c(c1)c(C(N)=O)c(-c1ccc(S(=O)(=O)NC3(C(F)(F)F)CC3)cc1)n2C1CCC1 [Cpd 389, 1-cyclobutyl-5-(methylsulfanyl)-2-(4-{[1-(trifluoromethyl)cyclopropyl]sulfamoyl}phenyl)-1H-pyrrolo[2,3-b]pyridine-3-carboxamide]
The IC50 of the first is higher: 500 to 2000 nM for the first, < 500 nM for the second. The second is the more potent here.

Same assay, conditions: replicon-containing cells cultured with test compound for up to 3 days

In the case of “6-(3,6-dicyano-1-cyclobutyl-1H-pyrrolo[2,3-b]pyridin-2-yl)-N-[(2S)-1,1,1-trifluoropropan-2-yl]pyridine-3-sulfonamide [Cpd 241]”, the IC50 is reported as < 500 nM.
